In ChEMBL document CHEMBL1201862, “PubChem BioAssay data set” (2004):
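Exposure lasted 48 hours, with cells grown in 96-well plates and compounds tested at five concentrations. The concentration for 50% growth inhibition is given as GI50.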 Active and inactive are the calls of the source. Rule as the data show it: active = GI50 up to about 1.1 µM and inactive = higher.

Assays:
Test in all cases: inhibition of tumour cell growth, NCI panel, 48 h
[1] = tested on: SK-OV-3
[2] = tested on: HOP-92
[3] = tested on: SK-MEL-28
[4] = tested on: UACC-62
[5] = tested on: NCI-H23
[6] = tested on: COLO 205
[7] = tested on: OVCAR-8
[8] = tested on: SW-620
[9] = tested on: LXFL 529
[10] = tested on: SNB-75
[11] = tested on: HOP-62
[12] = tested on: SNB-78
[13] = tested on: M19-MEL
[14] = tested on: TK-10
[15] = tested on: OVCAR-4
[16] = tested on: OVCAR-3
[17] = tested on: IGROV-1
[18] = tested on: DLD-1
[19] = tested on: SN12C
[20] = tested on: A549
[21] = tested on: NCI-H226
[22] = tested on: 786-0
[23] = tested on: K562
[24] = tested on: LOX IMVI
[25] = tested on: SR
[26] = tested on: HCT-15
[27] = tested on: SK-MEL-2
[28] = tested on: CCRF-CEM
[29] = tested on: KM-20L2
[30] = tested on: HCC 2998
[31] = tested on: A498
[32] = tested on: Malme-3M
[33] = tested on: NCI-H522
[34] = tested on: MOLT-4
[35] = tested on: RPMI-8226
[36] = tested on: NCI-H460
[37] = tested on: DMS-114
[38] = tested on: RXF 393
[39] = tested on: SF-295
[40] = tested on: HL-60
[41] = tested on: HT-29
[42] = tested on: SF-539
[43] = tested on: HOP-18
[44] = tested on: ACHN
[45] = tested on: HCT-116
[46] = tested on: UACC-257
[47] = tested on: XF498
[48] = tested on: DMS-273
[49] = tested on: UO-31
[50] = tested on: M14
[51] = tested on: U-251
[52] = tested on: KM12
[53] = tested on: SNB-19
[54] = tested on: SF-268
[55] = tested on: EKVX
[56] = tested on: CAKI-1
[57] = tested on: OVCAR-5
[58] = tested on: SK-MEL-5

C[N+]1(C)CCCC1C(=O)[O-] (configuration not stated)
GI50 [1]: > 100 µM (inactive)
GI50 [2]: > 100 µM (inactive)
GI50 [3]: > 100 µM (inactive)
GI50 [4]: > 100 µM (inactive)
GI50 [5]: > 100 µM (inactive)
GI50 [6]: > 100 µM (inactive)
GI50 [7]: > 100 µM (inactive)
GI50 [8]: > 100 µM (inactive)
GI50 [9]: > 100 µM (inactive)
GI50 [10]: > 100 µM (inactive)
GI50 [11]: > 100 µM (inactive)
GI50 [12]: > 100 µM (inactive)
GI50 [13]: > 100 µM (inactive)
GI50 [14]: > 100 µM (inactive)
GI50 [15]: > 100 µM (inactive)
GI50 [16]: > 100 µM (inactive)
GI50 [17]: > 100 µM (inactive)
GI50 [18]: > 100 µM (inactive)
GI50 [19]: > 100 µM (inactive)
GI50 [20]: > 100 µM (inactive)
GI50 [21]: > 100 µM (inactive)
GI50 [22]: > 100 µM (inactive)
GI50 [23]: > 100 µM (inactive)
GI50 [24]: > 100 µM (inactive)
GI50 [25]: > 100 µM (inactive)
GI50 [26]: > 100 µM
GI50 [27]: > 100 µM (inactive)
GI50 [28]: > 100 µM (inactive)
GI50 [29]: > 100 µM (inactive)
GI50 [30]: > 100 µM (inactive)
GI50 [31]: > 100 µM (inactive)
GI50 [32]: > 100 µM (inactive)
GI50 [33]: > 100 µM (inactive)
GI50 [34]: > 100 µM (inactive)
GI50 [35]: > 100 µM (inactive)
GI50 [36]: > 100 µM (inactive)
GI50 [37]: > 100 µM (inactive)
GI50 [38]: > 100 µM (inactive)
GI50 [39]: > 100 µM (inactive)
GI50 [40]: > 100 µM (inactive)
GI50 [41]: > 100 µM (inactive)
GI50 [42]: > 100 µM (inactive)
GI50 [43]: > 100 µM (inactive)
GI50 [44]: > 100 µM (inactive)
GI50 [45]: > 100 µM (inactive)
GI50 [46]: > 100 µM (inactive)
GI50 [47]: > 100 µM (inactive)
GI50 [48]: > 100 µM (inactive)
GI50 [49]: > 100 µM (inactive)
GI50 [50]: > 100 µM (inactive)
GI50 [51]: > 100 µM (inactive)
GI50 [52]: > 100 µM (inactive)
GI50 [53]: > 100 µM (inactive)
GI50 [54]: > 100 µM (inactive)
GI50 [55]: > 100 µM (inactive)

CCOC(=O)C1=C(O)C(=O)c2c(OC)ccc(OC)c2C1=O
GI50 [1]: > 100 µM (inactive)
GI50 [2]: > 100 µM (inactive)
GI50 [3]: > 100 µM (inactive)
GI50 [4]: > 100 µM (inactive)
GI50 [5]: > 100 µM (inactive)
GI50 [6]: > 100 µM (inactive)
GI50 [7]: > 100 µM (inactive)
GI50 [8]: > 100 µM (inactive)
GI50 [10]: 82.6 µM (inactive)
GI50 [11]: > 100 µM (inactive)
GI50 [12]: > 100 µM (inactive)
GI50 [13]: > 100 µM (inactive)
GI50 [14]: > 100 µM (inactive)
GI50 [15]: > 100 µM (inactive)
GI50 [16]: > 100 µM (inactive)
GI50 [17]: > 100 µM (inactive)
GI50 [18]: > 100 µM (inactive)
GI50 [19]: > 100 µM (inactive)
GI50 [20]: > 100 µM (inactive)
GI50 [21]: > 100 µM (inactive)
GI50 [56]: > 100 µM (inactive)
GI50 [22]: > 100 µM (inactive)
GI50 [57]: > 100 µM (inactive)
GI50 [23]: > 100 µM (inactive)
GI50 [24]: > 100 µM (inactive)
GI50 [25]: > 100 µM (inactive)
GI50 [26]: > 100 µM
GI50 [27]: > 100 µM (inactive)
GI50 [28]: > 100 µM (inactive)
GI50 [29]: > 100 µM (inactive)
GI50 [30]: > 100 µM (inactive)
GI50 [31]: > 100 µM (inactive)
GI50 [32]: > 100 µM (inactive)
GI50 [33]: > 100 µM (inactive)
GI50 [34]: > 100 µM (inactive)
GI50 [35]: > 100 µM (inactive)
GI50 [36]: > 100 µM (inactive)
GI50 [37]: > 100 µM (inactive)
GI50 [38]: > 100 µM (inactive)
GI50 [39]: > 100 µM (inactive)
GI50 [40]: > 100 µM (inactive)
GI50 [58]: > 100 µM (inactive)
GI50 [41]: > 100 µM (inactive)
GI50 [42]: > 100 µM (inactive)
GI50 [43]: 32.5 µM (inactive)
GI50 [44]: > 100 µM (inactive)
GI50 [45]: > 100 µM (inactive)
GI50 [46]: > 100 µM (inactive)
GI50 [47]: > 100 µM (inactive)
GI50 [48]: > 100 µM (inactive)
GI50 [49]: > 100 µM (inactive)
GI50 [50]: > 100 µM (inactive)
GI50 [51]: > 100 µM (inactive)
GI50 [52]: > 100 µM (inactive)
GI50 [53]: > 100 µM (inactive)
GI50 [54]: > 100 µM (inactive)
GI50 [55]: > 100 µM (inactive)
